# Data reported in PubChem BioAssay (NCI).
#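 Test compounds were applied to cells in 96-well plates for 48 hours at 5 doses. GI50 is the concentration that inhibits growth by half. TGI denotes the concentration required for complete inhibition of growth.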
# Legend:
# Assay in all cases: NCI-60 cell line screen, 48 h
# [1] = test system: 786-0 renal
# [2] = test system: A498 renal
# [3] = test system: A549 NSCLC
# [4] = test system: ACHN renal
# [5] = test system: BT-549 breast
# [6] = test system: CAKI-1 renal
# [7] = test system: CCRF-CEM leukemia
# [8] = test system: COLO 205 colon
# [9] = test system: DU-145 prostate
# [10] = test system: EKVX NSCLC
# [11] = test system: HCC-2998 colon
# [12] = test system: HCT-116 colon
# [13] = test system: HCT-15 colon
# [14] = test system: HL-60(TB) leukemia
# [15] = test system: HOP-62 NSCLC
# [16] = test system: HOP-92 NSCLC
# [17] = test system: HS 578T breast
# [18] = test system: HT29 colon
# [19] = test system: IGROV1 ovarian
# [20] = test system: K-562 leukemia
# [21] = test system: KM12 colon
# [22] = test system: LOX IMVI melanoma
# [23] = test system: M14 melanoma
# [24] = test system: MALME-3M melanoma
# [25] = test system: MCF7 breast
# [26] = test system: MDA-MB-231 breast
# [27] = test system: MDA-MB-435
# [28] = test system: MOLT-4 leukemia
# [29] = test system: NCI-H226 lung
# [30] = test system: NCI-H23 lung
# [31] = test system: NCI-H460 lung
# [32] = test system: NCI-H522 lung
# [33] = test system: NCI/ADR-RES ovarian
# [34] = test system: OVCAR-3 ovarian
# [35] = test system: OVCAR-4 ovarian
# [36] = test system: OVCAR-5 ovarian
# [37] = test system: OVCAR-8 ovarian
# [38] = test system: PC-3 prostate
# [39] = test system: RPMI-8226 leukemia
# [40] = test system: RXF 393 renal
# [41] = test system: SF-268 CNS
# [42] = test system: SF-295 CNS
# [43] = test system: SF-539 CNS
# [44] = test system: SK-MEL-2 melanoma
# [45] = test system: SK-MEL-28 melanoma
# [46] = test system: SK-MEL-5 melanoma
# [47] = test system: SK-OV-3 ovarian
# [48] = test system: SN12C renal
# [49] = test system: SNB-19 CNS
# [50] = test system: SNB-75 CNS
# [51] = test system: SR leukemia
# [52] = test system: SW-620 colon
# [53] = test system: T-47D breast
# [54] = test system: TK-10 renal
# [55] = test system: U251 CNS
# [56] = test system: UACC-257 melanoma
# [57] = test system: UACC-62 melanoma
# [58] = test system: UO-31 renal
smiles,measurement,setting,value
COc1cc(/C=C\c2cc(/C=C\c3ccc(O)c(OC)c3)n(C(=O)COc3ccccc3)n2)ccc1O,GI50,[1],1060 nM
same,TGI,[1],3580 nM
same,GI50,[2],2680 nM
same,TGI,[2],6490 nM
same,GI50,[3],2420 nM
same,TGI,[3],11100 nM
same,GI50,[4],490 nM
same,TGI,[4],11100 nM
same,GI50,[5],571 nM
same,TGI,[5],4030 nM
same,GI50,[6],657 nM
same,TGI,[6],12400 nM
same,GI50,[7],281 nM
same,TGI,[7],1340 nM
same,GI50,[8],1960 nM
same,TGI,[8],3950 nM
same,GI50,[9],1370 nM
same,TGI,[9],8060 nM
same,GI50,[10],2530 nM
same,TGI,[10],10300 nM
same,GI50,[11],2270 nM
same,TGI,[11],10200 nM
same,GI50,[12],386 nM
same,TGI,[12],10000 nM
same,GI50,[13],416 nM
same,TGI,[13],7960 nM
same,GI50,[14],282 nM
same,TGI,[14],901 nM
same,GI50,[15],1080 nM
same,TGI,[15],4950 nM
same,GI50,[16],3130 nM
same,TGI,[16],20400 nM
same,GI50,[17],1120 nM
same,TGI,[17],6840 nM
same,GI50,[18],2670 nM
same,TGI,[18],6350 nM
same,GI50,[19],919 nM
same,TGI,[19],8000 nM
same,GI50,[20],366 nM
same,TGI,[20],10800 nM
same,GI50,[21],500 nM
same,TGI,[21],6810 nM
same,GI50,[22],550 nM
same,TGI,[22],3290 nM
same,GI50,[23],343 nM
same,TGI,[23],2680 nM
same,GI50,[24],585 nM
same,TGI,[24],3710 nM
same,GI50,[25],343 nM
same,TGI,[25],2830 nM
same,GI50,[26],2380 nM
same,TGI,[26],15300 nM
same,GI50,[27],210 nM
same,TGI,[27],492 nM
same,GI50,[28],368 nM
same,TGI,[28],3260 nM
same,GI50,[29],3150 nM
same,TGI,[29],9940 nM
same,GI50,[30],1330 nM
same,TGI,[30],6640 nM
same,GI50,[31],1250 nM
same,TGI,[31],10200 nM
same,GI50,[32],304 nM
same,TGI,[32],970 nM
same,GI50,[33],559 nM
same,TGI,[33],11700 nM
same,GI50,[34],552 nM
same,TGI,[34],2770 nM
same,GI50,[35],845 nM
same,TGI,[35],12300 nM
same,GI50,[36],2750 nM
same,TGI,[36],6810 nM
same,GI50,[37],2520 nM
same,TGI,[37],8570 nM
same,GI50,[38],1600 nM
same,TGI,[38],> 100000 nM
same,GI50,[39],377 nM
same,TGI,[39],2360 nM
same,GI50,[40],1000 nM
same,TGI,[40],2520 nM
same,GI50,[41],651 nM
same,TGI,[41],5650 nM
same,GI50,[42],2780 nM
same,TGI,[42],7700 nM
same,GI50,[43],354 nM
same,TGI,[43],2470 nM
same,GI50,[44],661 nM
same,TGI,[44],3560 nM
same,GI50,[45],1120 nM
same,TGI,[45],10400 nM
same,GI50,[46],834 nM
same,TGI,[46],3520 nM
same,GI50,[47],1530 nM
same,TGI,[47],3450 nM
same,GI50,[48],799 nM
same,TGI,[48],7660 nM
same,GI50,[49],1360 nM
same,TGI,[49],9590 nM
same,GI50,[50],822 nM
same,TGI,[50],5300 nM
same,GI50,[51],318 nM
same,TGI,[51],2460 nM
same,GI50,[52],608 nM
same,TGI,[52],9020 nM
same,GI50,[53],1620 nM
same,TGI,[53],6950 nM
same,GI50,[54],2910 nM
same,TGI,[54],10900 nM
same,GI50,[55],564 nM
same,TGI,[55],5960 nM
same,GI50,[56],2210 nM
same,TGI,[56],7340 nM
same,GI50,[57],326 nM
same,TGI,[57],1270 nM
same,GI50,[58],302 nM
same,TGI,[58],4120 nM
